Data reported in BigSolDB 2.1.

C[C@@H]1O[C@@H](OC[C@H]2O[C@@H](Oc3c(-c4ccc(O)c(O)c4)oc4cc(O)cc(O)c4c3=O)[C@H](O)[C@@H](O)[C@@H]2O)[C@H](O)[C@H](O)[C@H]1O
solubility (mole fraction)
Details	273.2 K	283.2 K	293.2 K	303.2 K	313.2 K	323.2 K
in ethanol	0.00348	0.00372	0.00427	0.00515	0.00592	0.00653
in water	2.97e-06	5.29e-06	5.87e-06	8.22e-06	1.02e-05	1.42e-05
